Values quoted from earlier work as cited in patent publication US20240316075A1, “METHODS FOR TREATMENT OF PAIN WITH CANNABINOIDS” (ANANDA SCIENTIFIC, INC, priority 2021, published 2024).

Columns and labels:
[1] = rats, oral, 120 mg/kg dose
CB2 receptors = CB2 receptors (Homo sapiens, UniProt P34972)
[2] = doses ranging from 10 mg to 6000 mg, single and multiple doses

Sequence of CB2 receptors (P34972 whole entry): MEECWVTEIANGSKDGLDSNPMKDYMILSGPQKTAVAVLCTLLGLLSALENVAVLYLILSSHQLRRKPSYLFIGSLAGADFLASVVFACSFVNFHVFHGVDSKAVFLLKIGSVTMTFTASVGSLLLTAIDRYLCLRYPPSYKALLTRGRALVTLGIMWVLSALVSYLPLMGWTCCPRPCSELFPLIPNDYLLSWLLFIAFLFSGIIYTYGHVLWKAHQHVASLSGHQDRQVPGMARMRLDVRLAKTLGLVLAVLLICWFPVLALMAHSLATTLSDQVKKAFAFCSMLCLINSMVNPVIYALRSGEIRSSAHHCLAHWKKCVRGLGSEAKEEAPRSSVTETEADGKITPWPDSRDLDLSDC

For C=C(C)[C@@H]1CCC(C)=C[C@H]1c1c(O)cc(CCCCC)cc1O [CBD, 2-(1R,6R)-3-methyl-6-prop-1-en-2-ylcyclohex-2-en-1-yl-5-pentylbenzene-1,3-diol], the T½ [1] is given as 4 to 5 h, the “Affinity for CB2 receptors” value (CB2 receptors) is given as “low affinity” and the Safety finding [2] is given as “safe”.
